# Several values for one entry are separate records, joined by “and”; a condition that tells them apart may be missing. Equal values may be shown once. Entries after “also recorded” stand apart in the source; their conditions may differ. Read-outs that look alike come from different tables or passages of the source.
# Assays:
# TRPM8 = details: cited from earlier work
# TRPV1 = assay: whole-cell patch-clamp recording in response to a voltage ramp; assay type: cell-based
# Description: (b) Representative whole- cell patch- clamp recording of capsaicin activation of TRPV1 in response to a voltage ramp.
# TRPM8 Y745F = target: T1, TRPM8 Y745F (Mus musculus, UniProt Q8R4D5, Y745F); assay: whole-cell patch-clamp and thermodynamic mutant cycle analysis; assay type: cell-based
# T1 construct: expressed in transfected cells; host or cells: HEK293T
# Procedure: Murine TRPM8 was used in this study. Point mutations were made by Fast Mutagenesis Kit V2 (SBS Genetech). Primers used to generate point mutations are summarized in Supplementary Table 2. All mutations were confirmed by sequencing.
# (§1) HEK293T cells purchased from Kunming Cell Bank, Kunming Institute of Zoology, Chinese Academy of Sciences (ATCC, CRL-3216) were cultured in Dulbecco’s modified Eagle’s medium supplemented with 20 mM L-glutamine and 10% fetal bovine serum. Cells were transiently transfected with cDNA constructs by Lipofectamine 3000 (Life Technologies) following the manufacturer’s protocol. Patch-clamp recordings were performed 1–2 days after transfection.
# (§2) Patch-clamp recordings were performed with a HEKA EPC10 amplifier controlled by PatchMaster software (HEKA). Whole-cell recordings were performed at ±80 mV. Patch pipettes were prepared from borosilicate glass and fire-polished to resistance of ~4 MΩ. For whole-cell recording, serial resistance was compensated by 60%. For single-channel recordings, patch pipettes were fire-polished to a higher resistance of 6-to-10 MΩ and then recorded in the inside-out configuration. To maximize the chance of obtaining a patch with only one channel, single-channel recordings were performed about 8 h after transfection. A solution with 130 mM NaCl, 10 mM glucose, 0.2 mM EDTA, and 3 mM HEPES (pH 7.2) was used in both bath and pipette for either whole-cell or single-channel recordings. Membrane potential was clamped at +80 mV for single-channel recordings. Current was sampled at 10 kHz and filtered at 2.9 kHz. All recordings were performed at room temperature (22 °C) with the maximum variation of 1 °C.
# (§3) Ligands such as menthol and its analogs were perfused to membrane patch by a gravity-driven system (RSC-200, Bio-Logic). Bath and ligand solution were delivered through separate tubes to minimize the mixing of solutions. Patch pipette was placed in front of the perfusion tube outlet.
# (§4) Data from whole-cell recordings were analyzed in Igor Pro version 6.1 (WaveMatrix). EC50 values were derived from fitting a Hill equation to the concentration–response relationship. Changes in EC50 by point mutation may be caused by either perturbation of ligand bind or channel gating or both. To distinguish these possibilities, dissociation constant (Kd) for ligand binding was estimated assuming the following gating scheme:1 C0↔KdC1↔LO, where L is the equilibrium constant for the final closed-to-open transition.
# (§5) To perform thermodynamic cycle analysis, Kd values of four channel-ligand combinations (WT channel, menthol: Kd _1; Mutant channel, menthol: Kd _2; WT channel, menthol analog: Kd _3; Mutant channel, menthol analog: Kd _4) were determined separately. The strength of coupling was determined by the coupling energy (kT multiplied by LnΩ, where k is the Boltzmann constant and T is temperature in Kelvin). LnΩ was calculated by Eq. (2) as[51]2 LnΩ=LnKd_1⋅Kd_4/Kd_2⋅Kd_3.
# TRPM8 L797A = target: T2, TRPM8 L797A (Mus musculus, UniProt Q8R4D5, L797A); assay: as above; assay type: cell-based
# T2 construct: expressed in transfected cells; host or cells: HEK293T
# Procedure: (§6) Murine TRPM8 was used in this study. Point mutations were made by Fast Mutagenesis Kit V2 (SBS Genetech). Primers used to generate point mutations are summarized in Supplementary Table 2.
# as §1, §2, §3
# as §4, with “Changes in EC50 by point mutation may be caused by either perturbation of ligand bind or channel gating or both.” left out
# as §5
# TRPM8 W798A = target: T3, TRPM8 W798A (Mus musculus, UniProt Q8R4D5, W798A); assay: as above; assay type: cell-based
# T3 construct: expressed in transfected cells; host or cells: HEK293T
# Procedure: as §6, §1, §2, §3
# as §4, with “Changes in EC50 by point mutation may be caused by either perturbation of ligand bind or channel gating or both.” left out
# as §5
# TRPM8 D802L = target: T4, TRPM8 D802L (Mus musculus, UniProt Q8R4D5, D802L); assay: as above; assay type: cell-based
# T4 construct: expressed in transfected cells; host or cells: HEK293T
# Procedure: as §6, §1, §2, §3
# as §4, with “Changes in EC50 by point mutation may be caused by either perturbation of ligand bind or channel gating or both.” left out
# as §5
# TRPM8 D802S = target: T5, TRPM8 D802S (Mus musculus, UniProt Q8R4D5, D802S); assay: as above; assay type: cell-based
# T5 construct: expressed in transfected cells; host or cells: HEK293T
# Procedure: as §6, §1, §2, §3
# as §4, with “Changes in EC50 by point mutation may be caused by either perturbation of ligand bind or channel gating or both.” left out
# as §5
# TRPM8 D802I = target: T6, TRPM8 D802I (Mus musculus, UniProt Q8R4D5, D802I); assay: as above; assay type: cell-based
# T6 construct: expressed in transfected cells; host or cells: HEK293T
# Procedure: as §6, §1, §2, §3
# as §4, with “Changes in EC50 by point mutation may be caused by either perturbation of ligand bind or channel gating or both.” left out
# as §5
# TRPM8 R842K = target: T7, TRPM8 R842K (Mus musculus, UniProt Q8R4D5, R842K); assay: as above; assay type: cell-based
# T7 construct: expressed in transfected cells; host or cells: HEK293T
# Procedure: as §6, §1, §2, §3
# as §4, with “Changes in EC50 by point mutation may be caused by either perturbation of ligand bind or channel gating or both.” left out
# as §5
# TRPM8 Y1005F = target: T8, TRPM8 Y1005F (Mus musculus, UniProt Q8R4D5, Y1005F); assay: as above; assay type: cell-based
# T8 construct: expressed in transfected cells; host or cells: HEK293T
# Procedure: as §6, §1, §2, §3
# as §4, with “Changes in EC50 by point mutation may be caused by either perturbation of ligand bind or channel gating or both.” left out
# as §5
# wild-type TRPM8 [1] = target: T9, wild-type TRPM8 (Mus musculus, UniProt Q8R4D5); assay: whole-cell patch-clamp recording of ligand activation; assay type: cell-based
# T9 construct: expressed in transfected cells; host or cells: HEK293T
# Procedure: as §6
# Cells were transiently transfected with cDNA constructs by Lipofectamine 3000 (Life Technologies) following the manufacturer’s protocol. Patch-clamp recordings were performed 1–2 days after transfection.
# as §2, §3
# as §4, with “Changes in EC50 by point mutation may be caused by either perturbation of ligand bind or channel gating or both.” left out
# wild-type TRPM8 [2] = target: T9, wild-type TRPM8; assay: open probability from noise analysis of macroscopic current and single-channel recordings; assay type: cell-based; details: wild-type TRPM8; near saturating concentration (menthol 500 µM)
# Procedure: as §2
# From single-channel recordings, the open probability (Po) was calculated after events detection with a hidden Markov approach in the software QuB[49] (http://www.qub.buffalo.edu/). A dead time of 0.32 ms was imposed. As a complementary approach, Po was also estimated from noise analysis[52] of whole-cell recordings. Briefly, the mean current amplitude (I), the squared deviations in current amplitude from the mean value (σ^2), and the single-channel current (i) were measured experimentally from a membrane patch of ion channels. Then the number of ion channels clamped in that patch (N) was determined as3 N=I^2/i⋅I−σ^2.
# The maximum current when each of ion channel is at the open state with a Po of 1 is equal to i × N. Then the open probability was calculated as the ratio between the measured macroscopic current and the maximum current calculated by noise analysis. To estimate channel conductance, current amplitude was estimated from all-point histogram of single-channel recordings.
# [3] = mutant cycle menthol vs labelled analog
# T3 sequence (Q8R4D5 whole entry W798A): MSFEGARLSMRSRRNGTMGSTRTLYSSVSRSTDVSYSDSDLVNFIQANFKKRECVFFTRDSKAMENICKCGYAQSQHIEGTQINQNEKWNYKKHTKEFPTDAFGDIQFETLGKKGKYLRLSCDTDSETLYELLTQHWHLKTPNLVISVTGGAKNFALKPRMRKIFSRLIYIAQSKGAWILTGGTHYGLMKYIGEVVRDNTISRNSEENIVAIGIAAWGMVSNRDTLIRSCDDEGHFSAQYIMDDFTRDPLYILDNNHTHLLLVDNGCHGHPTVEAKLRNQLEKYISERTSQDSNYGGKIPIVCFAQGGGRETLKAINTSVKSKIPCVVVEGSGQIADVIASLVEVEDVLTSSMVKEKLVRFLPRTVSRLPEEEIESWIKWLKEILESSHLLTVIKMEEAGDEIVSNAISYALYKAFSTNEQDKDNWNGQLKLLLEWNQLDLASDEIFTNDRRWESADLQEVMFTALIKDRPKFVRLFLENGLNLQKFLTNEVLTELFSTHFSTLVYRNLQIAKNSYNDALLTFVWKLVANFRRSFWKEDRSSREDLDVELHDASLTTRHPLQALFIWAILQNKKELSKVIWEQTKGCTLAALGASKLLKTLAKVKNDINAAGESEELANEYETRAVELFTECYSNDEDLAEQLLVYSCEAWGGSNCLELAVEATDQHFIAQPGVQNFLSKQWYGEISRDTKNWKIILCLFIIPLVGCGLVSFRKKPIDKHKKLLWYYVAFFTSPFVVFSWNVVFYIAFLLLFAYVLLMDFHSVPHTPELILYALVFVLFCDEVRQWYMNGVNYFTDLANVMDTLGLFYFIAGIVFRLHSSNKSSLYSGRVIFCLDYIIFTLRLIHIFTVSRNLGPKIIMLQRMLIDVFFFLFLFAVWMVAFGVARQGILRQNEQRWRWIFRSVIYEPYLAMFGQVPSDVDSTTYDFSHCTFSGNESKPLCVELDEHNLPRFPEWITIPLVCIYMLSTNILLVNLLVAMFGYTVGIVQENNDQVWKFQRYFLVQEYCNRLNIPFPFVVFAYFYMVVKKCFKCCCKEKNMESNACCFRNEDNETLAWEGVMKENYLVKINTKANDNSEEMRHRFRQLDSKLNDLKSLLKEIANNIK
# T7 sequence (Q8R4D5 whole entry R842K): as the sequence (Q8R4D5 whole entry W798A) above, with A798W, R842K counted along it
# T9 sequence (Q8R4D5 whole entry): as the sequence (Q8R4D5 whole entry W798A) above, with A798W counted along it
# T8 sequence (Q8R4D5 whole entry Y1005F): as the sequence (Q8R4D5 whole entry W798A) above, with A798W, Y1005F counted along it
# T4 sequence (Q8R4D5 whole entry D802L): as the sequence (Q8R4D5 whole entry W798A) above, with A798W, D802L counted along it
# T1 sequence (Q8R4D5 whole entry Y745F): as the sequence (Q8R4D5 whole entry W798A) above, with Y745F, A798W counted along it
# T6 sequence (Q8R4D5 whole entry D802I): as the sequence (Q8R4D5 whole entry W798A) above, with A798W, D802I counted along it
# T2 sequence (Q8R4D5 whole entry L797A): as the sequence (Q8R4D5 whole entry W798A) above, with L797A, A798W counted along it
# T5 sequence (Q8R4D5 whole entry D802S): as the sequence (Q8R4D5 whole entry W798A) above, with A798W, D802S counted along it
smiles,measurement,setting,value
C[C@H](c1ccc(F)cc1)N(Cc1cccc(C(=O)O)c1)C(=O)c1cnc2ccccc2c1 [PF-05105679],effect on cold-related pain,TRPM8,effectively suppress cold-related pain
same,temperature sensation (side effect),"TRPM8; patients, clinical trials",side effects of altering temperature sensation; also recorded: altered temperature sensation in patients
COc1cc(CNC(=O)CCCC/C=C/C(C)C)ccc1O [capsaicin],effect of deep hyperpolarization on ligand-activated channel,TRPV1,not antagonized
"CC(C)[C@@H]1CC[C@@H](C)CC1=O [menthone, (−)-menthone]",Ratio X2 (Kd menthol / Kd labelled analog),TRPM8 Y745F,1.11
same,Omega(X1/X2),TRPM8 Y745F; menthol vs labelled analog,0.56
same,Coupling Energy,TRPM8 Y745F; [3],0.59 kT
same,Ratio X2 (Kd menthol / Kd labelled analog),TRPM8 L797A,1.22
same,Omega(X1/X2),TRPM8 L797A; menthol vs labelled analog,0.51
same,Coupling Energy,TRPM8 L797A; [3],0.67 kT
same,Ratio X2 (Kd menthol / Kd labelled analog),TRPM8 W798A,0.21
same,Omega(X1/X2),TRPM8 W798A; menthol vs labelled analog,2.89
same,Coupling Energy,TRPM8 W798A; [3],1.06 kT
same,Ratio X2 (Kd menthol / Kd labelled analog),TRPM8 D802L,3.06
same,Omega(X1/X2),TRPM8 D802L; menthol vs labelled analog,0.20
same,Coupling Energy,TRPM8 D802L; [3],1.60 kT
same,Ratio X2 (Kd menthol / Kd labelled analog),TRPM8 D802S,2.58
same,Omega(X1/X2),TRPM8 D802S; menthol vs labelled analog,0.24
same,Coupling Energy,TRPM8 D802S; [3],1.42 kT
same,Ratio X2 (Kd menthol / Kd labelled analog),TRPM8 D802I,1.35
same,Omega(X1/X2),TRPM8 D802I; menthol vs labelled analog,0.46
same,Coupling Energy,TRPM8 D802I; [3],0.78 kT
same,"L (equilibrium constant between closed and open states upon ligand binding), Ave",TRPM8 R842K,0.246
same,Ratio X2 (Kd menthol / Kd labelled analog),TRPM8 R842K,4.90
same,"concentration–response curve value, ave",TRPM8 R842K; 800 microM,0.04014
same,"concentration–response curve value, single recording",TRPM8 R842K; 800 microM,0.05631 and 0.03329 and 0.03847 and 0.03248
same,"concentration–response curve value, ave",TRPM8 R842K; 1000 microM,0.05391
same,"concentration–response curve value, single recording",TRPM8 R842K; 1000 microM,0.07259 and 0.05411 and 0.04679 and 0.04215
same,"concentration–response curve value, ave",TRPM8 R842K; 5000 microM,0.1385
same,Kd,"TRPM8 R842K; calculated from concentration–response curves, read-out: Kd, Ave",1780 µM
same,Omega(X1/X2),TRPM8 R842K; menthol vs labelled analog,0.13
same,Coupling Energy,TRPM8 R842K; [3],2.07 kT
same,Kd,"TRPM8 R842K; read-out: Kd, single recording",1120 µM and 2990 µM and 1510 µM and 1500 µM
same,Ratio X2 (Kd menthol / Kd labelled analog),TRPM8 Y1005F,0.15
same,Omega(X1/X2),TRPM8 Y1005F; menthol vs labelled analog,4.12
same,Coupling Energy,TRPM8 Y1005F; [3],1.42 kT
same,"L (equilibrium constant between closed and open states upon ligand binding), Ave",wild-type TRPM8 [1]; WT,0.9574
same,"L, single recording",wild-type TRPM8 [1]; WT,1.13 and 1.132 and 0.6097
same,Ratio X1 (Kd menthol / Kd labelled analog),wild-type TRPM8 [1]; WT,0.62
same,"concentration–response curve value, ave","wild-type TRPM8 [1]; WT, 100 microM",0.02705
same,"concentration–response curve value, single recording","wild-type TRPM8 [1]; WT, 100 microM",0.02655 and 0.02755
same,"concentration–response curve value, ave","wild-type TRPM8 [1]; WT, 700 microM",0.1118
same,"concentration–response curve value, single recording","wild-type TRPM8 [1]; WT, 700 microM",0.1118
same,"concentration–response curve value, ave","wild-type TRPM8 [1]; WT, 800 microM",0.223
same,"concentration–response curve value, ave","wild-type TRPM8 [1]; WT, 1000 microM",0.4153
same,"concentration–response curve value, single recording","wild-type TRPM8 [1]; WT, 1000 microM",0.3958 and 0.4096 and 0.4406
same,"concentration–response curve value, ave","wild-type TRPM8 [1]; WT, 5000 microM",0.5864
same,"concentration–response curve value, single recording","wild-type TRPM8 [1]; WT, 5000 microM",0.584 and 0.6851 and 0.4903
same,"concentration–response curve value, ave","wild-type TRPM8 [1]; WT, 10000 microM",0.596
same,"concentration–response curve value, single recording","wild-type TRPM8 [1]; WT, 10000 microM",0.562 and 0.63
same,Kd,"wild-type TRPM8 [1]; WT, read-out: Kd, single recording",1400 µM and 2020 µM and 1340 µM
same,EC50,"wild-type TRPM8 [1]; wild-type TRPM8, Hill equation fit of concentration–response, patch-clamp",813 ± 84.3 µM
same,maximum open probability (Po max),wild-type TRPM8 [2],0.48 ± 0.05

# From article PMC7391767, “Molecular mechanisms underlying menthol binding and activation of TRPM8 ion channel” (Nature Communications, 2020)
